Experiment: xn = mol fraction of the nth substance listed
Details: Liquid, Pycnometric method

CCCCCl [1-chlorobutane] + O=C=O
Details	mass density [kg/m3]
322.7 K, 8980 kPa, x1 = 0.0243	377
322.7 K, 8990 kPa, x1 = 0.0744	690
322.7 K, 9050 kPa, x1 = 0.0243	387
322.7 K, 9110 kPa, x1 = 0.0243	397
322.7 K, 9120 kPa, x1 = 0.0981	754
322.7 K, 9140 kPa, x1 = 0.0744	698
322.7 K, 9170 kPa, x1 = 0.0243	407
322.7 K, 9240 kPa, x1 = 0.0243	418
322.7 K, 9280 kPa, x1 = 0.1488	802
322.7 K, 9290 kPa, x1 = 0.0744	705
322.7 K, 9300 kPa, x1 = 0.0981	759
322.7 K, 9320 kPa, x1 = 0.0243	430
322.7 K, 9390 kPa, x1 = 0.0243	443
322.7 K, 9470 kPa, x1 = 0.0243	456
322.7 K, 9470 kPa, x1 = 0.0744	713
322.7 K, 9500 kPa, x1 = 0.0981	764
322.7 K, 9560 kPa, x1 = 0.0243	470
322.7 K, 9600 kPa, x1 = 0.1488	807
322.7 K, 9630 kPa, x1 = 0.0243	482
322.7 K, 9700 kPa, x1 = 0.0243	494
322.7 K, 9700 kPa, x1 = 0.0744	721
322.7 K, 9720 kPa, x1 = 0.0981	769
322.7 K, 9740 kPa, x1 = 0.0243	501
322.7 K, 9790 kPa, x1 = 0.0243	507
322.7 K, 9810 kPa, x1 = 0.0243	510
322.7 K, 9940 kPa, x1 = 0.0744	729
322.7 K, 9950 kPa, x1 = 0.1488	811
322.7 K, 10080 kPa, x1 = 0.0981	777
322.7 K, 10210 kPa, x1 = 0.0744	738
322.7 K, 10310 kPa, x1 = 0.1488	815
322.7 K, 10480 kPa, x1 = 0.0981	785
322.7 K, 10520 kPa, x1 = 0.0744	746
322.7 K, 10730 kPa, x1 = 0.1488	820
322.7 K, 10870 kPa, x1 = 0.0744	755
322.7 K, 10920 kPa, x1 = 0.0981	792
322.7 K, 11110 kPa, x1 = 0.1488	823
322.7 K, 11230 kPa, x1 = 0.0744	764
322.7 K, 11440 kPa, x1 = 0.0981	802
322.7 K, 11540 kPa, x1 = 0.1488	828
322.7 K, 11680 kPa, x1 = 0.0744	773
322.7 K, 12000 kPa, x1 = 0.0981	810
322.7 K, 12020 kPa, x1 = 0.1488	832
322.7 K, 12170 kPa, x1 = 0.0744	782
322.7 K, 12270 kPa, x1 = 0.1488	835
322.7 K, 12520 kPa, x1 = 0.1488	837
322.7 K, 12600 kPa, x1 = 0.0981	818
322.7 K, 12720 kPa, x1 = 0.0744	792
322.7 K, 12780 kPa, x1 = 0.1488	839
322.7 K, 13030 kPa, x1 = 0.0981	824
322.7 K, 13270 kPa, x1 = 0.1488	844
322.7 K, 13320 kPa, x1 = 0.0744	802
322.7 K, 13530 kPa, x1 = 0.0981	830
322.7 K, 13570 kPa, x1 = 0.1488	846
322.7 K, 13850 kPa, x1 = 0.1488	849
322.7 K, 14020 kPa, x1 = 0.0744	812
322.7 K, 14030 kPa, x1 = 0.0981	836
322.7 K, 14170 kPa, x1 = 0.1488	851
322.7 K, 14470 kPa, x1 = 0.1488	853
322.7 K, 14590 kPa, x1 = 0.0981	843
322.7 K, 14600 kPa, x1 = 0.0744	820
322.7 K, 14740 kPa, x1 = 0.1488	856
322.7 K, 14960 kPa, x1 = 0.0744	824
322.7 K, 15170 kPa, x1 = 0.0981	849
322.7 K, 15190 kPa, x1 = 0.0744	828
324 K, 9110 kPa, x1 = 0.0483	519
324 K, 9140 kPa, x1 = 0.0483	527
324 K, 9190 kPa, x1 = 0.0483	537
324 K, 9250 kPa, x1 = 0.0483	546
324 K, 9310 kPa, x1 = 0.0483	556
324 K, 9370 kPa, x1 = 0.0483	566
324 K, 9450 kPa, x1 = 0.0483	576
324 K, 9540 kPa, x1 = 0.0483	587
324 K, 9630 kPa, x1 = 0.0483	599
324 K, 9750 kPa, x1 = 0.0483	611
324 K, 9850 kPa, x1 = 0.0483	620
324 K, 10010 kPa, x1 = 0.0483	633
324 K, 10200 kPa, x1 = 0.0483	646
324 K, 10420 kPa, x1 = 0.0483	660
324 K, 10690 kPa, x1 = 0.0483	674
324 K, 11030 kPa, x1 = 0.0483	689
324 K, 11440 kPa, x1 = 0.0483	705
324 K, 11960 kPa, x1 = 0.0483	721
324 K, 12550 kPa, x1 = 0.0483	738
324 K, 13030 kPa, x1 = 0.0483	749
324 K, 13450 kPa, x1 = 0.0483	758
324 K, 13950 kPa, x1 = 0.0483	768
324 K, 14450 kPa, x1 = 0.0483	778
324 K, 15020 kPa, x1 = 0.0483	788
327.6 K, 8120 kPa, x1 = 0.0243	244
327.6 K, 8180 kPa, x1 = 0.0243	249
327.6 K, 8250 kPa, x1 = 0.0243	253
327.6 K, 8320 kPa, x1 = 0.0243	258
327.6 K, 8390 kPa, x1 = 0.0243	263
327.6 K, 8460 kPa, x1 = 0.0243	268
327.6 K, 8480 kPa, x1 = 0.1488	758
327.6 K, 8520 kPa, x1 = 0.0243	274
327.6 K, 8590 kPa, x1 = 0.0243	279
327.6 K, 8670 kPa, x1 = 0.0243	285
327.6 K, 8710 kPa, x1 = 0.1488	762
327.6 K, 8750 kPa, x1 = 0.0243	291
327.6 K, 8820 kPa, x1 = 0.0243	298
327.6 K, 8880 kPa, x1 = 0.0243	304
327.6 K, 8920 kPa, x1 = 0.0981	692
327.6 K, 8920 kPa, x1 = 0.1488	766
327.6 K, 8950 kPa, x1 = 0.0243	311
327.6 K, 9040 kPa, x1 = 0.0243	318
327.6 K, 9050 kPa, x1 = 0.0981	698
327.6 K, 9110 kPa, x1 = 0.0243	326
327.6 K, 9140 kPa, x1 = 0.1488	770
327.6 K, 9180 kPa, x1 = 0.0243	334
327.6 K, 9200 kPa, x1 = 0.0981	704
327.6 K, 9270 kPa, x1 = 0.0243	343
327.6 K, 9350 kPa, x1 = 0.0243	352
327.6 K, 9360 kPa, x1 = 0.0981	711
327.6 K, 9370 kPa, x1 = 0.1488	774
327.6 K, 9410 kPa, x1 = 0.0243	359
327.6 K, 9410 kPa, x1 = 0.0483	469
327.6 K, 9430 kPa, x1 = 0.0483	473
327.6 K, 9460 kPa, x1 = 0.0243	364
327.6 K, 9470 kPa, x1 = 0.0483	480
327.6 K, 9520 kPa, x1 = 0.0483	487
327.6 K, 9530 kPa, x1 = 0.0981	718
327.6 K, 9570 kPa, x1 = 0.0483	494
327.6 K, 9600 kPa, x1 = 0.1488	778
327.6 K, 9620 kPa, x1 = 0.0483	502
327.6 K, 9670 kPa, x1 = 0.0483	510
327.6 K, 9730 kPa, x1 = 0.0483	518
327.6 K, 9730 kPa, x1 = 0.0981	725
327.6 K, 9790 kPa, x1 = 0.0483	526
327.6 K, 9850 kPa, x1 = 0.1488	781
327.6 K, 9860 kPa, x1 = 0.0483	535
327.6 K, 9930 kPa, x1 = 0.0483	544
327.6 K, 9940 kPa, x1 = 0.0981	731
327.6 K, 10010 kPa, x1 = 0.0483	553
327.6 K, 10090 kPa, x1 = 0.0483	562
327.6 K, 10110 kPa, x1 = 0.1488	785
327.6 K, 10190 kPa, x1 = 0.0483	572
327.6 K, 10200 kPa, x1 = 0.0981	739
327.6 K, 10290 kPa, x1 = 0.0483	582
327.6 K, 10410 kPa, x1 = 0.0483	593
327.6 K, 10410 kPa, x1 = 0.1488	790
327.6 K, 10450 kPa, x1 = 0.0981	746
327.6 K, 10540 kPa, x1 = 0.0483	604
327.6 K, 10690 kPa, x1 = 0.0483	615
327.6 K, 10720 kPa, x1 = 0.1488	794
327.6 K, 10770 kPa, x1 = 0.0981	754
327.6 K, 10810 kPa, x1 = 0.0483	623
327.6 K, 10910 kPa, x1 = 0.0483	629
327.6 K, 11000 kPa, x1 = 0.0483	635
327.6 K, 11050 kPa, x1 = 0.1488	798
327.6 K, 11060 kPa, x1 = 0.0483	639
327.6 K, 11110 kPa, x1 = 0.0981	761
327.6 K, 11140 kPa, x1 = 0.0483	644
327.6 K, 11220 kPa, x1 = 0.0483	648
327.6 K, 11380 kPa, x1 = 0.1488	802
327.6 K, 11460 kPa, x1 = 0.0981	769
327.6 K, 11770 kPa, x1 = 0.1488	806
327.6 K, 11880 kPa, x1 = 0.0981	777
327.6 K, 12150 kPa, x1 = 0.1488	811
327.6 K, 12330 kPa, x1 = 0.0981	785
327.6 K, 12530 kPa, x1 = 0.1488	815
327.6 K, 12830 kPa, x1 = 0.0981	792
327.6 K, 12950 kPa, x1 = 0.1488	819
327.6 K, 13400 kPa, x1 = 0.1488	823
327.6 K, 13410 kPa, x1 = 0.0981	802
327.6 K, 13890 kPa, x1 = 0.1488	828
327.6 K, 14220 kPa, x1 = 0.0981	813
327.6 K, 14350 kPa, x1 = 0.1488	832
327.6 K, 14900 kPa, x1 = 0.1488	837

From the NIST ThermoML archive (doi:10.1021/je900387e)
